# In US10829520B2, “Beta-hairpin peptidomimetics” (POLYPHOR AG, priority 2015, dated 2020):
# Where a SMILES comes first, the peptide text is derived from it. Bridges are numbered along the chain shown (N, C = ends). [ ]: non-standard residue; d: D form. The star is where a group is joined. X2 = CN(C)C(=N[C@@H](Cc1c[nH]c2ccccc12)C(=O)*)N(C)C; Ala(cPent) = N[C@@H](CC1CCCC1)C(=O)O; dHyp = O=C(O)[C@H]1C[C@H](O)CN1; Dab = NCC[C@H](N)C(=O)O
# Legend:
# Type in all cases: cell-based
# [1] = tested on: Acinetobacter baumannii 872842; details: 872842
# [2] = tested on: Acinetobacter baumannii DSM 30008; details: DSM 30008
# Procedure, shortened: (§1)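 Inocula standardised to a 0.5 McFarland reference and diluted to about 10^6 CFU/mL in MH-II broth are incubated with two-fold peptide series containing 0.002% polysorbate 80. No visible growth after 18-20 hours at 35° C defines the MIC, in μg/mL.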
# Escherichia coli 926415 = details: 926415
# [3] = tested on: Escherichia coli ATCC 25922; details: ATCC 25922
# Procedure, shortened: as §1
# [4] = tested on: Klebsiella pneumoniae 968733; details: 968733
# [5] = tested on: Klebsiella pneumoniae SSI #3010; details: SSI #3010
# Procedure, shortened: as §1
# [6] = tested on: Pseudomonas aeruginosa ATCC 27853; details: ATCC 27853
# Procedure, shortened: as §1
# [7] = tested on: human red blood cells (hRBC); assay: Hemolysis of human red blood cells; details: red cells of human, 1 h, 100 μg/mL
# Procedure, shortened: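 Percent lysis of washed human erythrocytes after 1 h at 37° C. with 100 μg/mL peptide, calculated from OD540 of 8-fold diluted supernatant as a fraction of the 2.5% Triton X-100 value.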
structure (smiles),measurement,setting,value
CC(C)C[C@@H]1NC(=O)[C@H](CCN)NC(=O)[C@H]2CCCN2C(=O)[C@H](CO)NC(=O)[C@H](C)NC(=O)[C@H](C(C)C)NC(=O)[C@@H](NC(=O)[C@@H](N)Cc2c[nH]c3ccccc23)CSSC[C@@H](C(=O)N[C@@H](CCN)C(=O)N[C@@H](CCN)C(=O)N[C@H](C(=O)N[C@@H](CCN)C(=O)N[C@H]2CCNC(=O)[C@H]([C@@H](C)O)NC(=O)[C@H](CCN)NC(=O)[C@H](CCN)NC(=O)[C@H](CC(C)C)NC(=O)[C@@H](CC(C)C)NC(=O)[C@H](CCN)NC2=O)[C@@H](C)O)NC(=O)[C@H](Cc2ccc(O)cc2)NC(=O)[C@H](CO)NC1=O [Ex. 127] (H-WCVAS[dP][Dab]LSYC[Dab][Dab]T[Dab][Dab][Dab][dL]L[Dab][Dab]T; disulfide 2-11; lactam 16-C),Acinetobacter baumannii 872842 MIC,[1],0.25 µg/mL
same,Acinetobacter baumannii DSM 30008 MIC,[2],0.25 µg/mL
same,Escherichia coli 926415 MIC,Escherichia coli 926415,2 µg/mL
same,Escherichia coli ATCC 25922 MIC,[3],1 µg/mL
same,Klebsiella pneumoniae 968733 MIC,[4],8 µg/mL
same,Klebsiella pneumoniae SSI #3010 MIC,[5],0.25 µg/mL
same,Pseudomonas aeruginosa ATCC 27853 MIC,[6],0.5 µg/mL
same,Hemolysis at 100 μg/mL,[7],1%
CC(C)C[C@@H]1NC(=O)[C@@H](CC(C)C)NC(=O)[C@H](CCN)NC(=O)[C@@H](NC(=O)[C@H](CCN)NC(=O)[C@@H](NC(=O)[C@H](CCN)NC(=O)[C@H](CCN)NC(=O)[C@@H]2CSSC[C@H](NC(=O)[C@@H](N)Cc3c[nH]c4ccccc34)C(=O)N[C@@H](C(C)C)C(=O)N[C@@H](C)C(=O)N[C@@H](CO)C(=O)NCC(=O)N3CCC[C@H]3C(=O)N[C@@H](CC(C)C)C(=O)N[C@@H](CO)C(=O)N[C@@H](Cc3ccc(O)cc3)C(=O)N2)[C@@H](C)O)CCNC(=O)[C@H]([C@@H](C)O)NC(=O)[C@H](CCN)NC(=O)[C@H](CCN)NC1=O [Ex. 128] (H-WCVASGPLSYC[Dab][Dab]T[Dab][Dab][Dab][dL]L[Dab][Dab]T; disulfide 2-11; lactam 16-C),Acinetobacter baumannii 872842 MIC,[1],0.25 µg/mL
same,Acinetobacter baumannii DSM 30008 MIC,[2],0.125 µg/mL
same,Escherichia coli 926415 MIC,Escherichia coli 926415,0.5 µg/mL
same,Escherichia coli ATCC 25922 MIC,[3],0.125 µg/mL
same,Klebsiella pneumoniae 968733 MIC,[4],4 µg/mL
same,Klebsiella pneumoniae SSI #3010 MIC,[5],0.125 µg/mL
same,Pseudomonas aeruginosa ATCC 27853 MIC,[6],0.5 µg/mL
same,Hemolysis at 100 μg/mL,[7],1%
CC(C)C[C@@H]1NC(=O)[C@H](C)NC(=O)[C@H]2C[C@H](O)CN2C(=O)[C@H](CO)NC(=O)[C@H](C)NC(=O)[C@H](C(C)C)NC(=O)[C@@H](NC(=O)[C@@H](N)Cc2c[nH]c3ccccc23)CSSC[C@@H](C(=O)N[C@@H](CCN)C(=O)N[C@@H](CCN)C(=O)N[C@H](C(=O)N[C@@H](CCN)C(=O)N[C@H]2CCNC(=O)[C@H]([C@@H](C)O)NC(=O)[C@H](CCN)NC(=O)[C@H](CCN)NC(=O)[C@H](CC(C)C)NC(=O)[C@@H](CC(C)C)NC(=O)[C@H](CCN)NC2=O)[C@@H](C)O)NC(=O)[C@H](Cc2ccc(O)cc2)NC(=O)[C@H](CO)NC1=O [Ex. 129] (H-WCVAS[dHyp]ALSYC[Dab][Dab]T[Dab][Dab][Dab][dL]L[Dab][Dab]T; disulfide 2-11; lactam 16-C),Acinetobacter baumannii 872842 MIC,[1],0.0625 µg/mL
same,Acinetobacter baumannii DSM 30008 MIC,[2],0.125 µg/mL
same,Escherichia coli 926415 MIC,Escherichia coli 926415,0.25 µg/mL
same,Escherichia coli ATCC 25922 MIC,[3],0.0625 µg/mL
same,Klebsiella pneumoniae 968733 MIC,[4],2 µg/mL
same,Klebsiella pneumoniae SSI #3010 MIC,[5],0.125 µg/mL
same,Pseudomonas aeruginosa ATCC 27853 MIC,[6],0.125 µg/mL
same,Hemolysis at 100 μg/mL,[7],<1%
CC(C)C[C@@H]1NC(=O)[C@@H](CC(C)C)NC(=O)[C@H](CCN)NC(=O)[C@@H](NC(=O)[C@H](CCN)NC(=O)[C@@H](NC(=O)[C@H](CCN)NC(=O)CNC(=O)[C@@H]2CSSC[C@H](NC(=O)[C@@H](N)Cc3c[nH]c4ccccc34)C(=O)N[C@@H](C(C)C)C(=O)N[C@@H](C)C(=O)N[C@@H](CO)C(=O)N[C@H](CO)C(=O)N3CCC[C@H]3C(=O)N[C@@H](CC(C)C)C(=O)N[C@@H](CO)C(=O)N[C@@H](Cc3ccc(O)cc3)C(=O)N2)[C@@H](C)O)CCNC(=O)[C@H]([C@@H](C)O)NC(=O)[C@H](CCN)NC(=O)[C@H](CCN)NC1=O [Ex. 130] (H-WCVAS[dS]PLSYCG[Dab]T[Dab][Dab][Dab][dL]L[Dab][Dab]T; disulfide 2-11; lactam 16-C),Acinetobacter baumannii 872842 MIC,[1],0.0625 µg/mL
same,Acinetobacter baumannii DSM 30008 MIC,[2],0.0625 µg/mL
same,Escherichia coli 926415 MIC,Escherichia coli 926415,0.25 µg/mL
same,Escherichia coli ATCC 25922 MIC,[3],0.0625 µg/mL
same,Klebsiella pneumoniae 968733 MIC,[4],0.125 µg/mL
same,Klebsiella pneumoniae SSI #3010 MIC,[5],0.0625 µg/mL
same,Pseudomonas aeruginosa ATCC 27853 MIC,[6],0.25 µg/mL
same,Hemolysis at 100 μg/mL,[7],<1%
CC(C)C[C@@H]1NC(=O)[C@@H](CC(C)C)NC(=O)[C@H](CCN)NC(=O)[C@@H](NC(=O)[C@H](CCN)NC(=O)[C@@H](NC(=O)[C@H](CCN)NC(=O)CNC(=O)[C@@H]2CSSC[C@H](NC(=O)[C@@H](N)Cc3c[nH]c4ccccc34)C(=O)N[C@@H](C(C)C)C(=O)N[C@@H](C)C(=O)N[C@@H](CO)C(=O)N3CCC[C@@H]3C(=O)N3CCC[C@H]3C(=O)N[C@@H](CC(C)C)C(=O)N[C@@H](CO)C(=O)N[C@@H](Cc3ccc(O)cc3)C(=O)N2)[C@@H](C)O)CCNC(=O)[C@H]([C@@H](C)O)NC(=O)[C@H](CCN)NC(=O)[C@H](CCN)NC1=O [Ex. 131] (H-WCVAS[dP]PLSYCG[Dab]T[Dab][Dab][Dab][dL]L[Dab][Dab]T; disulfide 2-11; lactam 16-C),Acinetobacter baumannii 872842 MIC,[1],0.125 µg/mL
same,Acinetobacter baumannii DSM 30008 MIC,[2],0.125 µg/mL
same,Escherichia coli 926415 MIC,Escherichia coli 926415,0.25 µg/mL
same,Escherichia coli ATCC 25922 MIC,[3],0.0625 µg/mL
same,Klebsiella pneumoniae 968733 MIC,[4],0.25 µg/mL
same,Klebsiella pneumoniae SSI #3010 MIC,[5],0.125 µg/mL
same,Pseudomonas aeruginosa ATCC 27853 MIC,[6],0.5 µg/mL
same,Hemolysis at 100 μg/mL,[7],<1%
CC(C)C[C@@H]1NC(=O)[C@@H](Cc2ccccc2)NC(=O)[C@H](CCN)NC(=O)[C@@H](NC(=O)[C@H](CCN)NC(=O)[C@@H](NC(=O)[C@H](CCN)NC(=O)CNC(=O)[C@@H]2CSSC[C@H](NC(=O)[C@@H](N)Cc3c[nH]c4ccccc34)C(=O)N[C@@H](C(C)C)C(=O)N[C@@H](C)C(=O)N[C@@H](CO)C(=O)N3CCC[C@@H]3C(=O)N3CCC[C@H]3C(=O)N[C@@H](CC3CCCC3)C(=O)N[C@@H](CO)C(=O)N[C@@H](Cc3ccc(O)cc3)C(=O)N2)[C@@H](C)O)CCNC(=O)[C@H]([C@@H](C)O)NC(=O)[C@H](CCN)NC(=O)[C@H](CCN)NC1=O [Ex. 132] (H-WCVAS[dP]P[Ala(cPent)]SYCG[Dab]T[Dab][Dab][Dab][dF]L[Dab][Dab]T; disulfide 2-11; lactam 16-C),Acinetobacter baumannii 872842 MIC,[1],0.0625 µg/mL
same,Acinetobacter baumannii DSM 30008 MIC,[2],0.0625 µg/mL
same,Escherichia coli 926415 MIC,Escherichia coli 926415,0.1255 µg/mL
same,Escherichia coli ATCC 25922 MIC,[3],0.0625 µg/mL
same,Klebsiella pneumoniae 968733 MIC,[4],0.125 µg/mL
same,Klebsiella pneumoniae SSI #3010 MIC,[5],0.125 µg/mL
same,Pseudomonas aeruginosa ATCC 27853 MIC,[6],0.25 µg/mL
same,Hemolysis at 100 μg/mL,[7],<1%
CC(C)C[C@@H]1NC(=O)[C@@H](CC(C)C)NC(=O)[C@H](CCN)NC(=O)[C@@H](NC(=O)[C@H](CCN)NC(=O)[C@@H](NC(=O)[C@H](CCN)NC(=O)CNC(=O)[C@@H]2CSSC[C@H](NC(=O)[C@H](Cc3c[nH]c4ccccc34)N=C(N(C)C)N(C)C)C(=O)N[C@@H](C(C)C)C(=O)N[C@@H](C)C(=O)N[C@@H](CO)C(=O)N3CCC[C@@H]3C(=O)N3CCC[C@H]3C(=O)N[C@@H](CC(C)C)C(=O)N[C@@H](CO)C(=O)N[C@@H](Cc3ccc(O)cc3)C(=O)N2)[C@@H](C)O)CCNC(=O)[C@H]([C@@H](C)O)NC(=O)[C@H](CCN)NC(=O)[C@H](CCN)NC1=O [Ex. 133] (X2-CVAS[dP]PLSYCG[Dab]T[Dab][Dab][Dab][dL]L[Dab][Dab]T; disulfide 1-10; lactam 15-C),Acinetobacter baumannii 872842 MIC,[1],4 µg/mL
same,Acinetobacter baumannii DSM 30008 MIC,[2],1 µg/mL
same,Escherichia coli 926415 MIC,Escherichia coli 926415,4 µg/mL
same,Escherichia coli ATCC 25922 MIC,[3],0.25 µg/mL
same,Klebsiella pneumoniae 968733 MIC,[4],8 µg/mL
same,Klebsiella pneumoniae SSI #3010 MIC,[5],1 µg/mL
same,Pseudomonas aeruginosa ATCC 27853 MIC,[6],1 µg/mL
same,Hemolysis at 100 μg/mL,[7],<1%
